Data set [1] concerns Staphylococcus aureus. The experiment in a line: Antimicrobial activity against Staphylococcus aureus in orally dosed mouse bacteremia survival model. The format is functional. As to conditions: po.
The subject of data set [2] is Staphylococcus aureus. The experiment in a line: Antimicrobial activity against Staphylococcus aureus in iv dosed mouse bacteremia survival model. The data set is classed as functional.
The test system of another data set is Enterococcus faecium. The experiment in a line: Antimicrobial activity against VanA expressing vancomycin-resistant Enterococcus faecium by micro broth dilution or agar based method. The data set is classed as functional. As to conditions: Enterococcus faecium; read-out: MIC. (In general: In broth dilution the organism is exposed to a series of concentrations in liquid medium.)

A further data set deals with Mus musculus. The experiment in a line: Dose normalized AUC in C57BL/6 mouse at 1 mg/kg, iv. The data set is classed as ADME, organism-based. Set-up: dose 1 mg/kg, route intravenous. As to conditions: in vivo.
The subject of another data set is Acinetobacter baumannii. The experiment in a line: Antimicrobial activity against Acinetobacter baumannii IID876 by micro broth dilution or agar based method. The format is functional. As to conditions: Acinetobacter baumannii, IID876; read-out: MIC.
For data set [3], the system named is Staphylococcus aureus. The experiment in a line: Antimicrobial activity against methicillin-resistant Staphylococcus aureus OIT971 by micro broth dilution or agar based method. The data set is classed as functional.
Data set [4] is described as follows: Half life in C57BL/6 mouse at 1 mg/kg, iv or 10 mg/kg, po. The format is ADME, organism-based. Conditions: in vivo.
A short description of data set [5]: Volume of distribution at steady state in C57BL/6 mouse at 1 mg/kg, iv or 10 mg/kg, po. The data set is classed as ADME, organism-based. Conditions: in vivo, read-out: Vdss.
The test system of data set [6] is Staphylococcus aureus. The experiment in a line: Antimicrobial activity against Staphylococcus aureus Smith by micro broth dilution or agar based method. Conditions: Staphylococcus aureus, Smith; read-out: MIC. The data set is classed as functional.
Data set [7] can be described thus: Plasma clearance in C57BL/6 mouse at 1 mg/kg, iv or 10 mg/kg, po. The format is ADME, organism-based.
Data set [8] in a line: Oral bioavailability in C57BL/6 mouse at 10 mg/kg. The format is ADME, organism-based. As to conditions: in vivo.
A further data set relates to Pseudomonas aeruginosa. The experiment in a line: Antimicrobial activity against Pseudomonas aeruginosa PAO1 by micro broth dilution or agar based method. Conditions: Pseudomonas aeruginosa, PAO1; read-out: MIC. The format is functional.
The subject of the next data set is Streptococcus pneumoniae. The experiment in a line: Antimicrobial activity against Streptococcus pneumoniae IID553 by micro broth dilution or agar based method. Conditions: Streptococcus pneumoniae, IID553; read-out: MIC. The data set is classed as functional.
Another data set deals with Escherichia coli. The experiment in a line: Antimicrobial activity against Escherichia coli ATCC 25922 by micro broth dilution or agar based method. As to conditions: Escherichia coli, ATCC 25922; read-out: MIC. The format is functional.
Data set [9] has as its system Staphylococcus aureus. The experiment in a line: Antimicrobial activity against quinolone-sensitive Staphylococcus aureus MS5935 by micro broth dilution or agar based method.
The test system of data set [10] is Staphylococcus aureus. The experiment in a line: Potency index, ratio of MIC for quinolone-resistant Staphylococcus aureus MS5935 to MIC for quinolone-[…]. The data set is classed as functional.
Data set [11] deals with Staphylococcus aureus. The experiment in a line: Antimicrobial activity against quinolone-resistant Staphylococcus aureus MS5935 by micro broth dilution or agar based method. The format is functional.
In data set [12] the target is Voltage-gated inwardly rectifying potassium channel KCNH2 (Homo sapiens, UniProt Q12809). The experiment in a line: Inhibition of MK499 binding to human ERG.

Each structure is given as a SMILES string. ≈ marks a conversion by molar mass, not a printed value.

Voltage-gated inwardly rectifying potassium channel KCNH2, sequence (Q12809 whole entry): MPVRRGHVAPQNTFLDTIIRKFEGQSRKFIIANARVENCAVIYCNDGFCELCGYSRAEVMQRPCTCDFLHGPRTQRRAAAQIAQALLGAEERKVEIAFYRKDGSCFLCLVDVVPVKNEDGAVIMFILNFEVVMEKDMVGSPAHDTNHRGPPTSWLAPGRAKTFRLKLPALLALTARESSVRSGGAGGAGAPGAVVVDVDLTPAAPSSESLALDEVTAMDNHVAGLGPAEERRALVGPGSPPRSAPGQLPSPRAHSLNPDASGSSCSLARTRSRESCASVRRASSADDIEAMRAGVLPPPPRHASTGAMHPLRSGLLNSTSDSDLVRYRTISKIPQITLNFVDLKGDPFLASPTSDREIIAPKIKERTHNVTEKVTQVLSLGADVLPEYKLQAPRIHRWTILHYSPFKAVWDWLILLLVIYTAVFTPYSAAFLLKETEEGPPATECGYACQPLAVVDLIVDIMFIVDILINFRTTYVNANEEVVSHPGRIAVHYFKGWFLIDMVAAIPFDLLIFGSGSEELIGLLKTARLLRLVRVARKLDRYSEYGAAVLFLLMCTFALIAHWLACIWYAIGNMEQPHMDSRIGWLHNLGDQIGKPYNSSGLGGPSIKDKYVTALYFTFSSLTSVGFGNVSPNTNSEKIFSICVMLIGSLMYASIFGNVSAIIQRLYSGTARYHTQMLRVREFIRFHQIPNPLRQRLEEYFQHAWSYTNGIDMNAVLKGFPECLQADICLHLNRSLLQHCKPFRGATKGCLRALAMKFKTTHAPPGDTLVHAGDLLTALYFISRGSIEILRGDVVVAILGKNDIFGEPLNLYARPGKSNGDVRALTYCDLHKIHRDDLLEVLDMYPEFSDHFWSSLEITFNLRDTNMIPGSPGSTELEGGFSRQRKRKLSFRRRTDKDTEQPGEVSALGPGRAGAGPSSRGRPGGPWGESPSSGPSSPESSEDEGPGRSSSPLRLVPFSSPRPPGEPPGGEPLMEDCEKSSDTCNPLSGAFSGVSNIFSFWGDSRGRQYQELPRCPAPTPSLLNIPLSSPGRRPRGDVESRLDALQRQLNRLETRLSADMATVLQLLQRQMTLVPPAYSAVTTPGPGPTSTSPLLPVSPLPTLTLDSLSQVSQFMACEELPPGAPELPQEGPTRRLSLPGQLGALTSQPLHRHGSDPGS

As for `COc1ccc2ncc(C#N)c(CCC34CCC(NCc5ccc6c(n5)NC(=O)CO6)(CC3)CO4)c2n1.Cl`, the ED50 – broadly, the dose at which the effect has come halfway, by size or by number of responders – in the data set on Staphylococcus aureus [1] was 9.6 mg/kg; with Staphylococcus aureus [2], 8.6 mg/kg.
Turning to `COc1ccc2nccc(CCC34CCC(NCc5ccc6c(n5)NC(=O)CO6)(CC3)CO4)c2n1`, the MIC – broadly, the smallest concentration in the dilution series that meets the test's criterion for growth inhibition – in the data set with Enterococcus faecium is 1 µg/mL (≈ 2.1 µM); in the data set with Acinetobacter baumannii, 2 µg/mL (≈ 4.21 µM); in the data set on Staphylococcus aureus [3], 0.031 µg/mL (≈ 0.0652 µM); in the data set with Staphylococcus aureus [6], 0.031 µg/mL (≈ 0.0652 µM); in the data set on Pseudomonas aeruginosa, 8 µg/mL (≈ 16.8 µM); in the data set on Streptococcus pneumoniae, 0.5 µg/mL (≈ 1.05 µM). Moreover, the minimum inhibitory concentration (MIC) with Escherichia coli was 2 µg/mL (≈ 4.21 µM). In addition, the AUC/dose in the data set on Mus musculus is 0.86 µM·h/mg/kg. In addition, the half-life (as a rule, the time in which the quantity being followed falls by half) in data set [4] is 7.97 h. In addition, the Vd in data set [5] was found to be 5.95 L/kg. Besides, the clearance in data set [7] turned out to be 40.8 mL/min/kg. Further, in data set [8], the bioavailability (as a rule, dose-corrected exposure relative to a reference, in per cent) came out at 30.4%.
On to `COc1ccc2ncc(F)c(CCC34CCC(NCc5ccc6c(n5)NC(=O)CO6)(CC3)CO4)c2n1`, for which the MIC in the data set on Enterococcus faecium was 0.5 µg/mL (≈ 1.01 µM); in the data set on Acinetobacter baumannii it was 0.5 µg/mL (≈ 1.01 µM); in the data set with Staphylococcus aureus [3] it was 0.008 µg/mL (≈ 0.0162 µM); with Staphylococcus aureus [6] it was 0.016 µg/mL (≈ 0.0324 µM); with Pseudomonas aeruginosa it was 4 µg/mL (≈ 8.1 µM); in the data set with Streptococcus pneumoniae, 0.125 µg/mL (≈ 0.253 µM). Moreover, the MIC with Escherichia coli was determined as 1 µg/mL (≈ 2.03 µM). Moreover, in data set [8], the bioavailability came out at 71%.
`Cl.N#Cc1ccc2ncc(F)c(CCC34CCC(NCc5ccc6c(n5)NC(=O)CO6)(CC3)CO4)c2n1`: the ED50 in the data set on Staphylococcus aureus [1] stood at 17 mg/kg; with Staphylococcus aureus [2], 20 mg/kg.
Regarding `C[C@H]1COc2c(N3CCN(C)CC3)c(F)cc3c(=O)c(C(=O)O)cn1c23.C[C@H]1COc2c(N3CCN(C)CC3)c(F)cc3c(=O)c(C(=O)O)cn1c23.O` [LEVOFLOXACIN], the MIC against Staphylococcus aureus [9] is 0.25 µg/mL; in the data set with Staphylococcus aureus [11] it was over 16 µg/mL. For the same compound, the Ratio in the data set on Staphylococcus aureus [10] was over 64.
On to `O=C1COc2ccc(CNC34CCC(CCc5c(F)cnc6ccc(N7CCOCC7)nc56)(CC3)OC4)nc2N1`, for which the MIC amounted to 8 µg/mL (≈ 14.6 µM) in the data set with Enterococcus faecium; 16 µg/mL (≈ 29.2 µM) with Acinetobacter baumannii; 0.25 µg/mL (≈ 0.456 µM) in the data set on Staphylococcus aureus [3]; 0.5 µg/mL (≈ 0.911 µM) in the data set on Staphylococcus aureus [6]; 16 µg/mL (≈ 29.2 µM) in the data set on Pseudomonas aeruginosa; 4 µg/mL (≈ 7.29 µM) in the data set on Streptococcus pneumoniae. Also, the minimal inhibitory concentration (MIC) in the data set with Escherichia coli was 16 µg/mL (≈ 29.2 µM). In the data set on Staphylococcus aureus [10], the Ratio is reported as under 4. The IC50 (commonly the concentration needed to halve the response being measured) in data set [12] worked out at 11.5 µM.
As for `CCOc1cc(C)c2ncc(F)c(CCC34CCC(NCc5ccc6c(n5)NC(=O)CO6)(CC3)CO4)c2n1`, the MIC in the data set with Enterococcus faecium came out at 4 µg/mL (≈ 7.67 µM); with Acinetobacter baumannii, 4 µg/mL (≈ 7.67 µM); against Staphylococcus aureus [3], 0.031 µg/mL (≈ 0.0594 µM); with Staphylococcus aureus [6] it was 0.063 µg/mL (≈ 0.121 µM); in the data set with Pseudomonas aeruginosa, 32 µg/mL (≈ 61.4 µM); in the data set on Streptococcus pneumoniae, 1 µg/mL (≈ 1.92 µM). For the same compound, the MIC with Escherichia coli was determined as 8 µg/mL (≈ 15.3 µM). In addition, in the data set on Staphylococcus aureus [10], the Ratio is reported as under 4. In [12], this compound registered an IC50 of 1.19 µM.
As for `COc1ccc2ncc(Cl)c(CCC34CCC(NCc5ccc6c(n5)NC(=O)CO6)(CC3)CO4)c2n1.Cl`, the median effective dose (ED50) in the data set with Staphylococcus aureus [1] was over 50 mg/kg; with Staphylococcus aureus [2] it was 17 mg/kg.
Regarding `CCOC(=O)c1c(OC)cnc2c(CCC34CCC(NCc5ccc6c(n5)NC(=O)CO6)(CC3)CO4)ccnc12`, the MIC in the data set on Enterococcus faecium, with Acinetobacter baumannii, in the data set with Staphylococcus aureus [3], in the data set on Staphylococcus aureus [6], with Pseudomonas aeruginosa and with Streptococcus pneumoniae was 16 µg/mL (≈ 29.2 µM) each time. In the data set on Escherichia coli, the MIC came to 16 µg/mL (≈ 29.2 µM). The Ratio in the data set on Staphylococcus aureus [10] is on record as under 4. The same compound gave an IC50 in data set [12] of 7.87 µM.
As to `COc1ccc2ncc(C#N)c(CC(O)C34CCC(NCc5ccc6c(n5)NC(=O)CO6)(CC3)CO4)c2n1.Cl` (stereo not given), the ED50 stood at 6.7 mg/kg in the data set on Staphylococcus aureus [1] and 5.1 mg/kg in the data set with Staphylococcus aureus [2].
With `COc1ccc2nccc(CCC34CCC(NCc5ccc6c(n5)NC(=O)CO6)(CC3)CO4)c2n1.Cl`, the ED50 was over 50 mg/kg in the data set on Staphylococcus aureus [1] and 7.2 mg/kg in the data set on Staphylococcus aureus [2].

The record behind these values is ChEMBL document CHEMBL3421558, “Structure activity relationship of substituted 1,5-naphthyridine analogs of oxabicyclooctane-linked novel bacterial topoisomerase inhibitors as broad-spectrum antibacterial agents (Part-4)” (Bioorg Med Chem Lett, 2015).
